Assay results: patent US12252524B2, “GIP/GLP1 co-agonist compounds” (Eli Lilly and Company, priority 2018, dated 2025)
Numbered stars: 1 amine (or outer) side, 2 acyl side, 3 side chain; on linkers, the order of the positions; unused ones are H or OH. Square brackets hold non-standard residues; d marks the D form. Side chains are listed from the residue outwards. Peptide text beside a SMILES is read from it. * marks the point of attachment. C20 diacid = O=C(O)CCCCCCCCCCCCCCCCCCC(=O)*; αMePhe(2-F) = C[C@](N)(Cc1ccccc1F)C(=O)O; γGlu = O=C(O)[C@H](CCC(=O)[*:2])N[*:1]; αMeF = C[C@](N)(Cc1ccccc1)C(=O)O; 3Pal = N[C@@H](Cc1cccnc1)C(=O)O; αMeL = CC(C)C[C@](C)(N)C(=O)O; AEEA = NCCOCCOCC(=O)O; Aib = CC(C)(N)C(=O)O

Tests used:
[1] = target: T1, gastric inhibitory peptide receptor (GIPR) (Homo sapiens, UniProt P48546); assay: cAMP pharmacological functional assay in presence of casein, hGIPR; type: cell-based; conditions: HEK293 cells expressing hGIPR, 0.1% Casein, geometric mean; read-out: hGIPR cAMP Rel EC50 nM (SEM, n)
T1 sequence (P48546 22-466): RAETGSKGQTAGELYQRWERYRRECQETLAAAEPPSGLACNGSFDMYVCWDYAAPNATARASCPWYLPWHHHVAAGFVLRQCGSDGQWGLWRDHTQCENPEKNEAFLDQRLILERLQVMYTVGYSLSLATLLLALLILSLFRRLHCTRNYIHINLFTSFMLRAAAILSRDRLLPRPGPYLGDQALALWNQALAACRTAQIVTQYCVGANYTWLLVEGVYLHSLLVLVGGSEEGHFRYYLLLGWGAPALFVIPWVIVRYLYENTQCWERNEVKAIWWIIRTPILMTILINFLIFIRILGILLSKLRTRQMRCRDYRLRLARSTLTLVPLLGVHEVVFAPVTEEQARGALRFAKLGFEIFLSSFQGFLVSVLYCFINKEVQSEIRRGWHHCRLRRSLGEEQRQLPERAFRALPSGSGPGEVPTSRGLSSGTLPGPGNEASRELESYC

[2] = target: human GLP-1 receptor (GLP-1R) (Homo sapiens, UniProt P43220); assay: cAMP pharmacological functional assay in presence of casein, hGLP-1R; type: cell-based; conditions: HEK293 cells expressing hGLP-1R, 0.1% Casein, geometric mean; read-out: hGLP1R cAMP Rel EC50 nM (SEM, n)
Chain of human GLP-1 receptor (GLP-1R) (P43220 24-463): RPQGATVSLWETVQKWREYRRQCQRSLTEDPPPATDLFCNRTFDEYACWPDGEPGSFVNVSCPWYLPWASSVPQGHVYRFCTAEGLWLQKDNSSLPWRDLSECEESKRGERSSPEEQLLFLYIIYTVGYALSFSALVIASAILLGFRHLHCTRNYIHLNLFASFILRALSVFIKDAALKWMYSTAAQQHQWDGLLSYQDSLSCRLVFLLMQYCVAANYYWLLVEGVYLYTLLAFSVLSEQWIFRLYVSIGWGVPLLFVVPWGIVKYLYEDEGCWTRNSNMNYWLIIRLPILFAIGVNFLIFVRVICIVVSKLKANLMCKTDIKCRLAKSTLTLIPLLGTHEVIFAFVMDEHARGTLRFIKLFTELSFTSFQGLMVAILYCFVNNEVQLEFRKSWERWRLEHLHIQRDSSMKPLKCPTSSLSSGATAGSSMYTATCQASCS

**Q.** With `CC[C@H](C)[C@H](NC(=O)[C@H](CC(C)C)NC(=O)[C@H](Cc1ccc(O)cc1)NC(=O)[C@H](CCC(=O)O)NC(=O)[C@@H](NC(=O)[C@H](Cc1ccccc1)NC(=O)[C@H](C)NC(=O)C(C)(C)NC(=O)[C@H](CCC(N)=O)NC(=O)[C@H](C)NC(=O)[C@H](CCCCNC(=O)COCCOCCNC(=O)COCCOCCNC(=O)CC[C@H](NC(=O)CCCCCCCCCCCCCCCCCCC(=O)O)C(=O)O)NC(=O)[C@H](CCCCN)NC(=O)[C@H](CC(=O)O)NC(=O)[C@H](CC(C)C)NC(=O)[C@H](CC(C)C)NC(=O)[C@@H](NC(=O)[C@H](CO)NC(=O)[C@H](Cc1cccnc1)NC(=O)[C@H](CC(=O)O)NC(=O)[C@H](CO)NC(=O)[C@@H](NC(=O)[C@](C)(Cc1ccccc1)NC(=O)[C@@H](NC(=O)CNC(=O)[C@H](CCC(=O)O)NC(=O)C(C)(C)NC(=O)[C@@H](N)Cc1ccc(O)cc1)[C@@H](C)O)[C@@H](C)O)[C@@H](C)CC)[C@@H](C)CC)C(=O)N[C@@H](CCC(=O)O)C(=O)NCC(=O)NCC(=O)N1CCC[C@H]1C(=O)N[C@@H](CO)C(=O)N[C@@H](CO)C(=O)NCC(=O)N[C@@H](C)C(=O)N1CCC[C@H]1C(=O)N1CCC[C@H]1C(=O)N1CCC[C@H]1C(=O)N[C@@H](CO)C(N)=O` [Example 132] (H-Y[Aib]EGT[αMeF]TSD[3Pal]SILLDKK([AEEA-AEEA-γGlu-C20 diacid])AQ[Aib]AFIEYLIEGGPSSGAPPPS-NH2) as the compound, how does the EC50 [1] read?
**A.** 0.0657 nM

**Q.** And the EC50 [2]?
**A.** 0.26 nM

**Q.** `CC[C@H](C)[C@H](NC(=O)[C@H](CC(C)C)NC(=O)[C@H](Cc1ccc(O)cc1)NC(=O)[C@H](CCC(=O)O)NC(=O)[C@@H](NC(=O)[C@H](Cc1ccccc1)NC(=O)[C@H](C)NC(=O)C(C)(C)NC(=O)[C@H](CCC(N)=O)NC(=O)[C@H](C)NC(=O)[C@H](CCCCNC(=O)COCCOCCNC(=O)COCCOCCNC(=O)CC[C@H](NC(=O)CCCCCCCCCCCCCCCCCCC(=O)O)C(=O)O)NC(=O)[C@H](CCCCN)NC(=O)[C@H](CC(=O)O)NC(=O)[C@H](CC(C)C)NC(=O)[C@H](CC(C)C)NC(=O)[C@@H](NC(=O)[C@H](CO)NC(=O)[C@H](C)NC(=O)[C@H](CC(=O)O)NC(=O)[C@H](CO)NC(=O)[C@@H](NC(=O)[C@H](Cc1ccccc1)NC(=O)[C@@H](NC(=O)CNC(=O)[C@H](CCC(=O)O)NC(=O)C(C)(C)NC(=O)[C@@H](N)Cc1ccc(O)cc1)[C@@H](C)O)[C@@H](C)O)[C@@H](C)CC)[C@@H](C)CC)C(=O)N[C@@H](CCC(=O)O)C(=O)N[C@@H](C)C(=O)NCC(=O)N1CCC[C@H]1C(=O)N[C@@H](CO)C(=O)N[C@@H](CO)C(=O)NCC(=O)N[C@@H](C)C(=O)N1CCC[C@H]1C(=O)N1CCC[C@H]1C(=O)N1CCC[C@H]1C(=O)N[C@@H](CO)C(N)=O` [Example 136] (H-Y[Aib]EGTFTSDASILLDKK([AEEA-AEEA-γGlu-C20 diacid])AQ[Aib]AFIEYLIEAGPSSGAPPPS-NH2) was tested. Which EC50 [1] did it give?
**A.** 3.39 nM

**Q.** And the EC50 [2]?
**A.** 0.06 nM

**Q.** Which EC50 [1] does the source give for `CC[C@H](C)[C@H](NC(=O)[C@H](CC(C)C)NC(=O)[C@H](Cc1ccc(O)cc1)NC(=O)[C@H](CCC(=O)O)NC(=O)[C@@H](NC(=O)[C@H](Cc1ccccc1)NC(=O)[C@@H](NC(=O)C(C)(C)NC(=O)[C@H](CCC(N)=O)NC(=O)[C@H](C)NC(=O)[C@H](CCCCNC(=O)COCCOCCNC(=O)COCCOCCNC(=O)CC[C@H](NC(=O)CCCCCCCCCCCCCCCCCCC(=O)O)C(=O)O)NC(=O)[C@H](CCCCN)NC(=O)[C@H](CC(=O)O)NC(=O)[C@H](CC(C)C)NC(=O)[C@](C)(CC(C)C)NC(=O)[C@@H](NC(=O)[C@H](CO)NC(=O)[C@H](Cc1ccc(O)cc1)NC(=O)[C@H](CC(=O)O)NC(=O)[C@H](CO)NC(=O)[C@@H](NC(=O)[C@](C)(Cc1ccccc1)NC(=O)[C@@H](NC(=O)CNC(=O)[C@H](CCC(=O)O)NC(=O)C(C)(C)NC(=O)[C@@H](N)Cc1ccc(O)cc1)[C@@H](C)O)[C@@H](C)O)[C@@H](C)CC)[C@@H](C)CC)[C@@H](C)CC)C(=O)N[C@@H](CCC(=O)O)C(=O)NCC(=O)NCC(=O)N1CCC[C@H]1C(=O)N[C@@H](CO)C(=O)N[C@@H](CO)C(=O)NCC(=O)N[C@@H](C)C(=O)N1CCC[C@H]1C(=O)N1CCC[C@H]1C(=O)N1CCC[C@H]1C(=O)N[C@@H](CO)C(N)=O` [Example 141] (H-Y[Aib]EGT[αMeF]TSDYSI[αMeL]LDKK([AEEA-AEEA-γGlu-C20 diacid])AQ[Aib]IFIEYLIEGGPSSGAPPPS-NH2; N-terminus assumed) here?
**A.** 0.2 nM

**Q.** What about the EC50 [2] of the same compound?
**A.** 0.0975 nM

**Q.** With `CC[C@H](C)[C@H](NC(=O)[C@H](CC(C)C)NC(=O)[C@H](Cc1ccc(O)cc1)NC(=O)[C@H](CCC(N)=O)NC(=O)[C@@H](NC(=O)[C@H](Cc1ccccc1)NC(=O)[C@H](CCC(=O)O)NC(=O)C(C)(C)NC(=O)[C@H](CCC(N)=O)NC(=O)[C@H](C)NC(=O)[C@H](CCCCNC(=O)COCCOCCNC(=O)COCCOCCNC(=O)CC[C@H](NC(=O)CCCCCCCCCCCCCCCCCCC(=O)O)C(=O)O)NC(=O)[C@H](CCC(=O)O)NC(=O)[C@H](CC(=O)O)NC(=O)[C@H](CC(C)C)NC(=O)[C@](C)(CC(C)C)NC(=O)[C@@H](NC(=O)[C@H](CO)NC(=O)[C@H](Cc1ccc(O)cc1)NC(=O)[C@H](CC(=O)O)NC(=O)[C@H](CO)NC(=O)[C@@H](NC(=O)[C@](C)(Cc1ccccc1F)NC(=O)[C@@H](NC(=O)CNC(=O)[C@H](CCC(=O)O)NC(=O)C(C)(C)NC(=O)[C@@H](N)Cc1ccc(O)cc1)[C@@H](C)O)[C@@H](C)O)[C@@H](C)CC)[C@@H](C)CC)C(=O)N[C@@H](CCC(=O)O)C(=O)NCC(=O)NCC(=O)N1CCC[C@H]1C(=O)N[C@@H](CO)C(=O)N[C@@H](CO)C(=O)NCC(=O)N[C@@H](C)C(=O)N1CCC[C@H]1C(=O)N1CCC[C@H]1C(=O)N1CCC[C@H]1C(=O)N[C@@H](CO)C(N)=O` [Example 146] (H-Y[Aib]EGT[αMePhe(2-F)]TSDYSI[αMeL]LDEK([AEEA-AEEA-γGlu-C20 diacid])AQ[Aib]EFIQYLIEGGPSSGAPPPS-NH2) as the compound, how does the EC50 [1] read?
**A.** 0.0583 nM

**Q.** And the EC50 [2]?
**A.** 0.0604 nM

**Q.** `CC[C@H](C)[C@H](NC(=O)[C@H](Cc1ccccc1)NC(=O)[C@H](CCC(=O)O)NC(=O)C(C)(C)NC(=O)[C@H](CCC(N)=O)NC(=O)[C@H](C)NC(=O)[C@H](CCCCNC(=O)COCCOCCNC(=O)COCCOCCNC(=O)CC[C@H](NC(=O)CCCCCCCCCCCCCCCCCCC(=O)O)C(=O)O)NC(=O)[C@H](CCC(=O)O)NC(=O)[C@H](CC(=O)O)NC(=O)[C@H](CC(C)C)NC(=O)[C@](C)(CC(C)C)NC(=O)[C@@H](NC(=O)[C@H](CO)NC(=O)[C@H](Cc1ccc(O)cc1)NC(=O)[C@H](CC(=O)O)NC(=O)[C@H](CO)NC(=O)[C@@H](NC(=O)[C@](C)(Cc1ccccc1F)NC(=O)[C@@H](NC(=O)CNC(=O)[C@H](CCC(=O)O)NC(=O)C(C)(C)NC(=O)[C@@H](N)Cc1ccc(O)cc1)[C@@H](C)O)[C@@H](C)O)[C@@H](C)CC)C(=O)N[C@@H](C)C(=O)N[C@@H](Cc1ccc(O)cc1)C(=O)N[C@@H](CC(C)C)C(=O)N[C@H](C(=O)N[C@@H](CCC(=O)O)C(=O)NCC(=O)NCC(=O)N1CCC[C@H]1C(=O)N[C@@H](CO)C(=O)N[C@@H](CO)C(=O)NCC(=O)N[C@@H](C)C(=O)N1CCC[C@H]1C(=O)N1CCC[C@H]1C(=O)N1CCC[C@H]1C(=O)N[C@@H](CO)C(N)=O)[C@@H](C)CC` [Example 148] (H-Y[Aib]EGT[αMePhe(2-F)]TSDYSI[αMeL]LDEK([AEEA-AEEA-γGlu-C20 diacid])AQ[Aib]EFIAYLIEGGPSSGAPPPS-NH2) was tested. Which EC50 [1] did it give?
**A.** 0.043 nM

**Q.** What about the EC50 [2] of the same compound?
**A.** 0.0626 nM
